Usually IC50 stands for the concentration at which inhibition is half-maximal.

Values joined by “and” are separate entries in the source; they are usually repeats but may differ in a detail not shown here. Equal entries are not always repeated. Where two headings read alike, the source gives them in different places.

One series relates to A549 cells. Nature of the series: Detection of intracellular ROS by flow cytometry (CM-H2DCFDA). The series is classed as cell-based, human. The following applies: for Increase in intracellular ROS (fluorescence cell population shift): A549, 2.5 μM, 6 h incubation, CM-H2DCFDA; for Intracellular ROS increase, in words: A549, 0.625–2.5 μM, 6 h. Background: A flow cytometer gives signals particle by particle.

Series [1] has as its system A549 lung cancer cells. Nature of the series: Cell proliferation (MTT assay) in A549 lung cancer cells. The series is classed as cell-based, human. The following applies: for Fold less potent than 1 in cell proliferation: A549. The protocol: To gauge the ability of each complex to inhibit cancer cell growth, A549 lung cancer cells were treated with 1–3, 4[H][Cl], doxorubicin, and auranofin in a dose responsive manner. Cellular vitality (i.e., mitochondrial reductase activity) was then quantified colorimetrically post treatment using 3-(4,5-dimethylthiazol-2-yl)-2,5-diphenyltetrazolium bromide (MTT assay) (Table 2, Fig. 5).
(§1) Biological preparations and assays
(§2) Experimental compound preparation. Stock solutions of complexes 1–3, 4[H][Cl], auranofin (Tocris Bioscience 4600), and doxorubicin (Tocris Bioscience 2252) were dissolved in DMSO (2.5–10 mM, depending on the compound and its solubility), aliquoted, and stored at -80 °C prior to use.
(§3) Biological Materials and Cell Lines. Cell lines were obtained from the ATCC (A549 and PC-3) and Prof.
Zahid Siddik at M.D. Anderson Cancer Center (A2780 and A2780CP). Cell culture plastic ware (i.e. T-75 flasks, treated 6-well plates, treated 96-well plates, and cell scrapers) were obtained from Fisher Scientific. Cell were cultured in RPMI 1640 culture medium (+2mM glutamine, +25mM HEPES, Corning 10041cv) supplemented with 10% heat-inactivated fetal bovine serum (RMBIO FBS-BBT) and 1X penicillin-streptomycin (Sigma p4333). Unless otherwise noted, incubators were set to 37°C and 5% CO2.
Trypsin (HyClone SH30236.01) and 1X Phosphate Buffered Saline (HyClone SH30258.02, diluted in autoclaved deionized water) were utilized for general cell line maintenance and harvesting. Trace Metal […]
Cell Proliferation Studies. Cells were harvested and seeded into 96-well culture plates (Costar 07-200-90) in 100µL of culture media. They were allowed to incubate overnight at 37 °C in the presence of 5% CO2. […]
and PC-3 at 2000 cells/well. […]
were made. To each well of a 96 well plate was added 100 µL of the appropriate solution. After a total of three days, a […] aliquot of 3 mg/mL tetrazolium dye, 3-(4,5-dimethylthiazol-2-yl)-2,5-diphenyltetrazolium bromide (Alfa Aesar L11939) was added to each well, followed by a 4 hr incubation period at 37 °C. The medium was then removed, the resulting formazan was dissolved in […] DMSO and the respective absorbances were measured at 560–650 nm using a microplate reader (Molecular Devices, Sunnyvale, CA). Absorbance values were corrected for background and then normalized to wells containing untreated cells to allow for plate-to-plate comparisons. The data are shown as mean inhibition of proliferation or growth as a percentage of control cells and are from 2–3 replicate experiments. Resulting dose response curves were subjected to linear regression analysis (Origin by OriginLab, Inc.) for determination of IC50 values.
(In general: Tetrazolium dyes change colour on reduction, which living cells bring about.)

The test system of the next series is PC-3 prostate. Nature of the series: Cell proliferation (MTT assay) in PC-3 prostate cells. The series is classed as cell-based, human. Particulars: Homo sapiens, Prostate cell; p53 null; Table 3. On the procedure: (§4) Further anti-proliferation studies were carried out with complex 1 and its naphthoquinone component 4[H][Cl] using the following cell lines: A2780 ovarian (a wt-p53 cell line sensitive to platinum treatment), 2780CP ovarian (isogenic to A2780 but expressing multi-drug resistance (MDR)), and PC-3 prostate (p53 null) (Table 3).
as §1, §2, §3
(§5) Zahid Siddik at M.D. Anderson Cancer Center (A2780 and A2780CP). Cell culture plastic ware (i.e. T-75 flasks, treated 6-well plates, treated 96-well plates, and cell scrapers) were obtained from Fisher Scientific. […]
(§6) were made. […] The medium was then removed, the resulting formazan was dissolved in […] DMSO and the respective absorbances were measured at 560–650 nm using a microplate reader (Molecular Devices, Sunnyvale, CA). Absorbance values were corrected for background and then normalized to wells containing untreated cells to allow for plate-to-plate comparisons. […]

A further series relates to A2780 ovarian. Nature of the series: Cell proliferation (MTT assay) in A2780 ovarian cells. The series is classed as cell-based, human. Particulars: Homo sapiens, A2780; wt-p53, platinum sensitive; Table 3. On the procedure: as §4, §1, §2, §3, §5, §6
Series [2] deals with DNA duplex (5'CCGCAGCCA3'/5'TGGCTGCGG3'). Nature of the series: Thermal denaturation of a DNA duplex. The following applies: 1 molar equivalent, 5 μM complex and duplex. The format is binding.
In another series the test system is 2780CP ovarian. Description: Cell proliferation (MTT assay) in 2780CP ovarian cells. The format is cell-based, human. The following applies: Homo sapiens; isogenic to A2780, multi-drug resistance; Table 3. On the procedure: as §4, §1, §2, §3, §5, §6
A short description of series [3]: Differential pulse voltammetry, quinone reduction potentials. The format is physicochemical. Particulars: DMSO, 0.1 M [N(nBu)4][PF6], 0.1 mM analyte, vs. SCE; for E 1/2 a (V) DPV: first reduction, semiquinone radical (NQ˙–); for E 1/2 b (V) DPV: second reduction, quinone dianion (NQ2–). The protocol:
A series of electrochemical analyses, including cyclic voltammetry (CV) and differential pulse voltammetry (DPV), were carried out with [NnBu4][PF6] in anhydrous dimethyl sulfoxide (DMSO) in order to evaluate electronic properties of compounds 1–3 and 4[H][Cl]. […] These electrochemical features were attributed to the reduction of the quinone moiety to first produce the semiquinone radical (NQ^–) and then produce the quinone dianion (NQ^2–) forms of compounds 1–3 and 4[H][Cl].[70],[71] The quinone reduction potential in 4[H][Cl] occurs at –0.38 V, the lowest of all the molecules studied, indicative of a positively charged imidazolium ring. The quinone couple at –0.42 V observed for compound 1 is ascribed to the presence of bis(NHC). The same wave in compound 3 appears at a more negative potential (–0.47 V), presumably due to greater trans effects excreted by quinone annulated NHC ligand than the metal-bound chloride. This analysis agrees well with the differences in the observed δ^13C (Au–Ccarbene) resonances for compounds 1 and 3. […]
mM) as referenced to SCE (internal standard Fc0/+, adjusted to 0.435 V vs. SCE).

The subject of series [4] is thioredoxin reductase (TrxR). The following applies: 6 h exposure; for Inhibition of TrxR at higher concentrations: A549, 1.25–5.0 μM, lipoate reduction; for Inhibition of TrxR at low concentrations: A549, 0.1–0.6 μM, lipoate reduction over 180 min.
Protocol: Briefly, plateau phase A549 cells were exposed to variable doses of complexes 1, 3, 4[H][Cl], a 2 : 1 molar ratio of 4[H][Cl] and 5 (cocktail), auranofin, and doxorubicin for 6 h. Post treatment, the live cells were monitored colorimetrically over 180 min for their ability to reduce lipoate (Fig. 8a).
Series [5] is described as follows: Serum protein binding: free Au in fetal bovine serum by ICP-MS. The following applies: 25 μM in FBS, 37 °C, methanolic extracts, up to 100 h. The format is in vitro ADME. The protocol:
To assess potential drug protein interactions, samples of fetal bovine serum (FBS) were treated with 25 μM 1, 3, and auranofin prior to incubating at 37 °C. Aliquots were taken and the free Au (non-protein bound, methanolic extracts) content was analyzed by ICP-MS (Fig. 6b).
Serum Protein Binding Studies.
aliquots were stored at -80°C.
in an Edvotek microcentrifuge. […] Samples
Detection of ROS by Flow Cytometry.
cells were treated with vehicle only.
g) at 5 °C. […] The pellet was
Control samples of unstained cells,
overnight. […] Post incubation, the media was
After incubation, the dye-
Cells were then imaged fluorescently
Lipoate Inhibition Assays.
well culture plates. […] The next day, appropriate
were added to each well. […] Afterwards, the liquid was then

The subject of series [6] is A549 lung cancer cells. Nature of the series: ICP-MS detection of intracellular Au (cellular uptake).
[7] abbreviates: A549, ratio of IC50 to that of 1 (Table 2).
Setting [8] is: A549 lung cancer cells, MTT, 72 h, read-out: IC50.

On to `Cc1cc(C)c(-n2c[n+](-c3c(C)cc(C)cc3C)c3c2C(=O)c2ccccc2C3=O)c(C)c1` [4[H][Cl], 1,3-dimesitylnaphthoquinimidazolium], for which the “Increase in intracellular ROS (fluorescence cell population shift)” value in the series on A549 cells is given as ~11 fold. Besides, in the series with A549 lung cancer cells [1], the “Fold less potent than 1 in cell proliferation” value is ~14 fold. Further, the “Fold difference relative to 1” value in the series on A549 lung cancer cells [1] (setting [7]) is listed as 13.6. The IC50 worked out at 990 ± 120 nM in the series on A549 lung cancer cells [1] (Homo sapiens, A549, 72 h, A549 lung cancer cells, MTT, 72 h, read-out: IC50); 994 ± 120 nM with A549 lung cancer cells [1] (Homo sapiens, A549, Table 3, error = standard error from the mean, read-out: IC50 A549 lung); 136 ± 20 nM in the series with PC-3 prostate; 159 ± 58 nM in the series on A2780 ovarian; 626 ± 117 nM with 2780CP ovarian. In [2], the “Thermal stabilization of DNA” value is “no thermal stabilization”. The “E 1/2 a (V) DPV” value in series [3] is “–0.38 V”. Also, the “E 1/2 b (V) DPV” value in series [3] is “–1.15 V”. The “Inhibition of TrxR at higher concentrations” value in series [4] was “became evident”.

As to `CC(=O)OC[C@H]1O[C@@H]([S-])[C@H](OC(C)=O)[C@@H](OC(C)=O)[C@@H]1OC(C)=O.CCP(CC)CC.[Au+]` [Auranofin, reference compound], the “Intracellular ROS increase, in words” value in the series on A549 cells is on record as “minimal or no ROS increase”. For the same compound, the “Fold less potent than 1 in cell proliferation” value with A549 lung cancer cells [1] is listed as 23 fold. Also, the “Fold difference relative to 1” value in the series on A549 lung cancer cells [1] (setting [7]) is recorded as 22.9. Moreover, the half-maximal inhibitory concentration (IC50) in the series on A549 lung cancer cells [1] (setting [8]) amounted to 1670 nM. For the same compound, in series [5], the “Free Au (non-protein bound) content over time” value is on record as “decreased in a time dependent manner”. Moreover, in the series with A549 lung cancer cells [6] (A549, regardless of dose), the “Increase in intracellular Au concentration as compared to complex 1” value is listed as 2–5 fold. Further, the “Inhibition of TrxR at low concentrations” value in series [4] is given as “inhibition of TrxR was apparent”.

`Cc1cc(C)c(-n2c3c(n(-c4c(C)cc(C)cc4C)[c]2=[Au]([Cl])=[c]2n(-c4c(C)cc(C)cc4C)c4c(n2-c2c(C)cc(C)cc2C)C(=O)c2ccccc2C4=O)C(=O)c2ccccc2C3=O)c(C)c1` [Complex 2, [bis(1,3-dimesityl-4,5-naphthoquino-imidazol-2-ylidene)-gold(I)] chloride]: the “Fold difference relative to 1” value in the series with A549 lung cancer cells [1] (setting [7]) came out at 1. For the same compound, the IC50 in the series with A549 lung cancer cells [1] (setting [8]) came out at 75 nM. Also, in series [3], the “E 1/2 a (V) DPV” value was “–0.46 V” and the “E 1/2 b (V) DPV” value was “–1.31 V”.

For the compound `Cc1cc(C)c(-n2c3c([n+](-c4c(C)cc(C)cc4C)[c]2[Au-][Cl])C(=O)c2ccccc2C3=O)c(C)c1` [Complex 3, 1,3-dimesityl-4,5-naphthoquino-imidazol-2-ylidene)-gold(I) chloride], the “Intracellular ROS increase, in words” value in the series on A549 cells is on record as “minimal or no ROS increase”. Also, the “Fold less potent than 1 in cell proliferation” value with A549 lung cancer cells [1] is > 150 fold and 165 fold. Besides, the “Fold difference relative to 1” value in the series with A549 lung cancer cells [1] (setting [7]) was 165. In the series on A549 lung cancer cells [1] (setting [8]), the IC50 is 12100 nM. In series [3], the “E 1/2 a (V) DPV” value was “–0.47 V” and the “E 1/2 b (V) DPV” value is reported as “–1.31 V”. In the series on A549 lung cancer cells [6], the “Intracellular Au levels (uptake), in words” value is listed as “no intracellular Au was detected”. The “Inhibition of TrxR at higher concentrations” value in series [4] was “remained inactive”.

In the case of `Cc1cc(C)c(-[n+]2ccn(Cc3ccccc3)[c]2[Au-][c]2n(Cc3ccccc3)cc[n+]2-c2c(C)cc(C)cc2C)c(C)c1.[Cl-]` [Complex 5, bis(1-benzyl-3-mesityl-imidazol-2-ylidene)-gold(I) chloride, reference compound], in the series on A549 cells, the “Increase in intracellular ROS (fluorescence cell population shift)” value is reported as ~11 fold. For the same compound, the “Fold less potent than 1 in cell proliferation” value in the series on A549 lung cancer cells [1] is listed as ~10 fold. Moreover, the “Fold difference relative to 1” value in the series on A549 lung cancer cells [1] (setting [7]) is reported as 9.72. The half-maximal inhibitory concentration (IC50) in the series with A549 lung cancer cells [1] (setting [8]) is 710 nM. Further, in the series on A549 lung cancer cells [6] (A549, ICP-MS), the “Intracellular Au levels (uptake), in words” value is reported as “identical”. Further, in [4], the “Inhibition of TrxR at higher concentrations” value was “became evident”.

Consider `COc1cccc2c1C(=O)c1c(O)c3c(c(O)c1C2=O)C[C@@](O)(C(=O)CO)C[C@@H]3O[C@H]1C[C@H](N)[C@H](O)[C@H](C)O1` [Doxorubicin, reference compound], for which, in the series with A549 cells, the “Intracellular ROS increase, in words” value is given as “minimal or no ROS increase”. Also, the “Fold difference relative to 1” value with A549 lung cancer cells [1] was 1.41. In addition, in series [2], the “Thermal stabilization of DNA” value was “Significant DNA stabilization”. In addition, in series [4], the “Inhibition of TrxR at low concentrations” value was “little to no inhibition” and the “Inhibition of TrxR at higher concentrations” value was “remained inactive”.

For the origin of these results see publication PMC5859730, “Dual targeting of the cancer antioxidant network with 1,4-naphthoquinone fused Gold(I) N-heterocyclic carbene complexes” (Chemical Science, 2017).
